Test results reported in ChEMBL document CHEMBL1165959, “Novel tricyclic Delta(2)-isoxazoline and 3-oxo-2-methyl-isoxazolidine derivatives: synthesis and binding affinity at neuronal nicotinic acetylcholine receptor subtypes” (Bioorg Med Chem, 2010).

Tests used:
[1] = target: Neuronal acetylcholine receptor subunit alpha-7 (Rattus norvegicus, UniProt Q05941); experiment: Displacement of [125I]alpha-Bungarotoxin from alpha7 nAChR in rat cortical membrane; format: cell membranes
[2] = target: Neuronal acetylcholine receptor; alpha4/beta2 (Rattus norvegicus, UniProt P09483+P12390); experiment: Displacement of (+/-)-[3H]epibatidine from alpha4beta2 nAChR in rat cortical membrane; format: cell membranes
Chain of Neuronal acetylcholine receptor; alpha4/beta2 (P09483 whole entry): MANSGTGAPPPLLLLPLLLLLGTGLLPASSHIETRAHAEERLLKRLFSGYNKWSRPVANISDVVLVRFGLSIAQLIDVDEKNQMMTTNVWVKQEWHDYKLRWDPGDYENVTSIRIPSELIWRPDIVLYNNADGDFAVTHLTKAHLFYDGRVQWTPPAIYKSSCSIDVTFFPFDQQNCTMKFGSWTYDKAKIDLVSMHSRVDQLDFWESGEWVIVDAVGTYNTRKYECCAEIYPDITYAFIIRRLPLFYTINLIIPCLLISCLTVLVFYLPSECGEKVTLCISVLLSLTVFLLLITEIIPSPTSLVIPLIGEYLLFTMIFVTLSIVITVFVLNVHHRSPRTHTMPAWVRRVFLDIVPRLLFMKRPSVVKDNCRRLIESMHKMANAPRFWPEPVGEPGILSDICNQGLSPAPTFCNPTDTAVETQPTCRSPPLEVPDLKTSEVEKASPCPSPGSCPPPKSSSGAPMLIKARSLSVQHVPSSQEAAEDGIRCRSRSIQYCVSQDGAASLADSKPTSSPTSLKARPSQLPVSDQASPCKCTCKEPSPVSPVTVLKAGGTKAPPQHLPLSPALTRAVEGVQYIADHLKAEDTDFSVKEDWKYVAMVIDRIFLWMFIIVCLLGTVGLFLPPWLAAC
Chain of Neuronal acetylcholine receptor; alpha4/beta2 (P12390 whole entry): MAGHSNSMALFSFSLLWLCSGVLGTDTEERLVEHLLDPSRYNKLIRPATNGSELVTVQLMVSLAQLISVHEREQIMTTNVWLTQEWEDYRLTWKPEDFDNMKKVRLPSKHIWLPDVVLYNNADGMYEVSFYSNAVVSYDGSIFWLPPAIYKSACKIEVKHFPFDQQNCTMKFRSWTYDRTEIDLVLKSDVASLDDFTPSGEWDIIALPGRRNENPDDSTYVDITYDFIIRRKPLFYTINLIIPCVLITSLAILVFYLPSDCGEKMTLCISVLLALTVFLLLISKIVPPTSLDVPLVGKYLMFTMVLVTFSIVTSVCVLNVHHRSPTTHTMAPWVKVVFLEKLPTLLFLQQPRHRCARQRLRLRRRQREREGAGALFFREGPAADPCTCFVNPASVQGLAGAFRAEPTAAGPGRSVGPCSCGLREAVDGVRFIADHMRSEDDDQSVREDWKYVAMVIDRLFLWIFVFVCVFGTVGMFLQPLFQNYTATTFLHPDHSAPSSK

Chain of Neuronal acetylcholine receptor subunit alpha-7 (Q05941 whole entry): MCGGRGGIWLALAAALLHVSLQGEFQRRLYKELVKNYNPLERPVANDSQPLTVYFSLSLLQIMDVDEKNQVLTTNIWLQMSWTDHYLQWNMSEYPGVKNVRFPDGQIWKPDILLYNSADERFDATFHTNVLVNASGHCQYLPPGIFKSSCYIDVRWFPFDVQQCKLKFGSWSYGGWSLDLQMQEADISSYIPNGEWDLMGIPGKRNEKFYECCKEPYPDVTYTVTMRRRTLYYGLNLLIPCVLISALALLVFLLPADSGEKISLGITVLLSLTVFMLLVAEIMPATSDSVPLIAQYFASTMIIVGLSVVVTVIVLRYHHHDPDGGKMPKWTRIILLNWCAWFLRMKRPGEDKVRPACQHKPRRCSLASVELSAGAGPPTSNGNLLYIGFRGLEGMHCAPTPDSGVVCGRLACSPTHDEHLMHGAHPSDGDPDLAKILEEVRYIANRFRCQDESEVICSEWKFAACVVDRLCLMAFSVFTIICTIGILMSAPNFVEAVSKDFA

SMILES | Ki [1] [µM] | Ki [2] [µM]
BrC1=NOC2CC3CNCC(C3)C12 (centres undefined) | 28.5 | 0.92
COC1=NOC2C3CCC(CC12)N3 (centres undefined) | 28.2 | 4.5
CN1OC2CC3CNCC(C3)C2C1=O (centres undefined) | > 100 | 79
BrC1=NOC2C3CCC(CC12)N3 (centres undefined) | 20 | 0.75
COC1=NOC2CC3CCC(N3)C12 (centres undefined) | 68 | 53
CC(=O)C1=CC[C@H]2CC[C@@H]1N2 | > 10 | 0.094
BrC1=NOC2CC3CCC(N3)C12 (centres undefined) | 109 | 260
CN1OC2C3CNCC(C3)CC2C1=O (centres undefined) | 9.5 | 1.8
CN1OC2CC3CCC(N3)C2C1=O (centres undefined) | > 100 | 50
CN1OC2C3CCC(CC2C1=O)N3 (centres undefined) | > 100 | 100
COC1=NOC2CC3CNCC(C3)C12 (centres undefined) | 170 | 31
O=c1cccc2n1C[C@@H]1CNC[C@H]2C1 [CYTISINICLINE] | 0.3 | 0.0004
